Results taken from patent US9394310B2, “Carbocycle-substituted purine and 7-deazapurine compounds” (Epizyme, Inc., priority 2010, dated 2016).
pIC50: −log10 of the molar value. Counter-ions that a name gives are not always drawn.

Biological target: T1, DOT1L (1-416) (Homo sapiens, UniProt Q8TEK3)
T1 construct: 40 μl per well of DOT1L (1-416) (0.25 nM final concentration in assay buffer)
Assay: Determination of IC50: DOT1L (1-416) methyltransferase assay with 3H-SAM and oligonucleosome, Flashplate scintillation readout
Format: biochemical
Details: 0.25 nM DOT1L (1-416), 30 min preincubation, 120 min reaction at room temperature, oligonucleosome substrate
Method: Compound was serially diluted 3 fold in DMSO for 10 points and 1 μl was plated in a 384 well microtiter plate. Positive control (100% inhibition standard) was 2.5 uM final concentration of S-adenosyl-L-homocysteine and negative control (0% inhibition standard) contained 1 μl of DMSO. Compound was then incubated for 30 minutes with 40 μl per well of DOT1L (1-416) (0.25 nM final concentration in assay buffer: 20 mM TRIS, pH 8.0, 10 mM NaCl, 0.002% Tween20, 0.005% Bovine Skin Gelatin, 100 mM KCl, and 0.5 mM DTT). 10 μl per well of substrate mix (same assay buffer with 200 nM S—[methyl-^3H]-adenosyl-L methionine, 600 nM of unlabeled […], and 20 nM oligonucleosome) was added to initiate the reaction. Reaction was incubated for 120 minutes at room temperature and quenched with 10 μl per well of 100 μM S-methyl-adenosyl-L methionine. For detection, substrate from 50 μl of reaction was immobilized on a 384 well Streptavidin coated Flashplate (Perkin Elmer) (also coated with 0.2% polyethyleneimine) and read on a Top Count scintillation counter (Perkin Elmer).

T1 sequence (Q8TEK3 1-416): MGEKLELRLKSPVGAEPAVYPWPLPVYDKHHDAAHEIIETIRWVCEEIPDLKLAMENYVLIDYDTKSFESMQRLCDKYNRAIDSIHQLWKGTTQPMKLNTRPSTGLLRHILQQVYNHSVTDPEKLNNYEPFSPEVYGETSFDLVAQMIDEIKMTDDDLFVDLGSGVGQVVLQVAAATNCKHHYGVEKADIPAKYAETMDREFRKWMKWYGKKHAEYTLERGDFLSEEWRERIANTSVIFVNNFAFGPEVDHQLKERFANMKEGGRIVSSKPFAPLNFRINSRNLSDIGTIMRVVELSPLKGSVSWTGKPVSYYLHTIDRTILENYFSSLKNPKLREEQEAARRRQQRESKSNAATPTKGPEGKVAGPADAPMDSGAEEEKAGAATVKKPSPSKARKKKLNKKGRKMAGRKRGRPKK

| Compound | pIC50 |
| --- | --- |
| CC(C)N(CCCCc1nc2cc(C(C)(C)C)ccc2[nH]1)C[C@H]1C[C@@H](n2ccc3c(N)ncnc32)[C@H](O)[C@@H]1O [Compound 1, (1R,2S,3R,5R)-3-(4-amino-7H-pyrrolo[2,3-d]pyrimidin-7-yl)-5-(((4-(5-tert-butyl-1H-benzo[d]imidazol-2-yl)butyl)(isopropyl)amino)methyl)-cyclopentane-1,2-diol] | > 7.00 |
| CC(C)N(CCCCc1nc2cc(C(C)(C)C)ccc2[nH]1)C[C@@H]1C[C@@H](n2ccc3c(N)ncnc32)[C@H](O)[C@@H]1O [Compound 2, (1R,2S,3R,5S)-3-(4-amino-7H-pyrrolo[2,3-d]pyrimidin-7-yl)-5-(((4-(5-tert-butyl-1H-benzo[d]imidazol-2-yl)butyl)(isopropyl)amino)methyl)-cyclopentane-1,2-diol] | > 7.00 |
| CN(CCCNC(=O)Nc1ccc(C(C)(C)C)cc1)C[C@@H]1C[C@@H](n2cnc3c(N)ncnc32)[C@H](O)[C@@H]1O [Compound 3, 1-(3-((((1S,2R,3S,4R)-4-(6-amino-9H-purin-9-yl)-2,3-dihydroxycyclopentyl)methyl)-(methyl)amino)propyl)-3-(4-(tert-butyl)phenyl)urea] | > 6.00 |
| CC(C)N(CCCCc1nc2cc(C(F)(F)F)c(Cl)cc2[nH]1)C[C@H]1C[C@@H](n2ccc3c(NC4CC4)ncnc32)[C@H](O)[C@@H]1O [Compound 4, (1S,2R,3R,5R)-3-(((4-(6-chloro-5-(trifluoromethyl)-1H-benzo[d]imidazol-2-yl)butyl)(isopropyl)amino)methyl)-5-(4-(cyclopropylamino)-7H-pyrrolo[2,3-d]pyrimidin-7-yl)cyclopentane-1,2-diol] | > 7.00 |
| CN(CCCCc1nc2cc(C(F)(F)F)c(Cl)cc2[nH]1)C[C@H]1C[C@@H](n2ccc3c(NC4CC4)ncnc32)[C@H](O)[C@@H]1O [Compound 5, (1S,2R,3R,5R)-3-(((4-(6-chloro-5-(trifluoromethyl)-1H-benzo[d]imidazol-2-yl)butyl)(methyl)amino)methyl)-5-(4-(cyclopropylamino)-7H-pyrrolo[2,3-d]pyrimidin-7-yl)cyclopentane-1,2-diol] | > 7.00 |
| CC(C)N(CCCCc1nc2ccc(C(F)(F)F)cc2[nH]1)C[C@H]1C[C@@H](n2ccc3c(NC4CC4)ncnc32)[C@H](O)[C@@H]1O [Compound 6, (1R,2S,3R,5R)-3-(4-(cyclopropylamino)-7H-pyrrolo[2,3-d]pyrimidin-7-yl)-5-((isopropyl-(4-(6-(trifluoromethyl)-1H-benzo[d]imidazol-2-yl)butyl)amino)methyl)-cyclopentane-1,2-diol] | > 7.00 |
| CN(CCCCc1nc2ccc(C(F)(F)F)cc2[nH]1)C[C@H]1C[C@@H](n2ccc3c(NC4CC4)ncnc32)[C@H](O)[C@@H]1O [Compound 7, (1R,2S,3R,5R)-3-(4-(cyclopropylamino)-7H-pyrrolo[2,3-d]pyrimidin-7-yl)-5-((methyl(4-(6-(trifluoromethyl)-1H-benzo[d]imidazol-2-yl)butyl)amino)methyl)-cyclopentane-1,2-diol] | > 7.00 |
| CN(CCCCc1nc2cc(Cl)c(Cl)cc2[nH]1)C[C@H]1C[C@@H](n2ccc3c(NC4CC4)ncnc32)[C@H](O)[C@@H]1O [Compound 8, (1R,2S,3R,5R)-3-(4-(cyclopropylamino)-7H-pyrrolo[2,3-d]pyrimidin-7-yl)-5-(((4-(5,6-dichloro-1H-benzo[d]imidazol-2-yl)butyl)(methyl)amino)methyl)-cyclopentane-1,2-diol] | > 7.00 |
| CC(C)N(CCCCc1nc2cc(Cl)c(Cl)cc2[nH]1)C[C@H]1C[C@@H](n2ccc3c(NC4CC4)ncnc32)[C@H](O)[C@@H]1O [Compound 9, (1R,2S,3R,5R)-3-(4-(cyclopropylamino)-7H-pyrrolo[2,3-d]pyrimidin-7-yl)-5-(((4-(5,6-dichloro-1H-benzo[d]imidazol-2-yl)butyl)(isopropyl)amino)methyl)-cyclopentane-1,2-diol trihydrochloride] | > 7.00 |
| CN(CCCNC(=O)Nc1ccc(C(C)(C)C)cc1)C[C@H]1C[C@@H](n2cnc3c(N)ncnc32)[C@H](O)[C@@H]1O [Compound 10, 1-(3-((((1R,2R,3S,4R)-4-(6-amino-9H-purin-9-yl)-2,3-dihydroxycyclopentyl)methyl)(meth-yl)amino)propyl)-3-(4-(tert-butyl)phenyl)urea] | > 7.00 |
| CC(C)(C)c1ccc2[nH]c(CCCCN(C[C@H]3C[C@@H](n4ccc5c(NC6CC6)ncnc54)[C@H](O)[C@@H]3O)S(C)(=O)=O)nc2c1 [Compound 11, N-(4-(5-(tert-butyl)-1H-benzo[d]imidazol-2-yl)butyl)-N-(((1R,2R,3S,4R)-4-(4-(cyclopropylamino)-7H-pyrrolo[2,3-d]pyrimidin-7-yl)-2,3-dihydroxycyclopentyl)methyl)-methanesulfonamide] | > 6.00 |
| CS(=O)(=O)N(CCCCc1nc2cc(C(F)(F)F)c(Cl)cc2[nH]1)C[C@H]1C[C@@H](n2ccc3c(NC4CC4)ncnc32)[C@H](O)[C@@H]1O [Compound 12, N-(4-(6-chloro-5-(trifluoromethyl)-1H-benzo[d]imidazol-2-yl)butyl)-N-(((1R,2R,3S,4R)-4-(4-(cyclopropylamino)-7H-pyrrolo[2,3-d]pyrimidin-7-yl)-2,3-dihydroxycyclopentyl)methyl)-methanesulfonamide] | > 6.00 |
| CN(CCCCc1nc2cc(C(F)(F)F)c(Cl)cc2[nH]1)C[C@H]1C[C@@H](n2ccc3c(N)ncnc32)[C@H](O)[C@@H]1O [Compound 13, (1R,2S,3R,5R)-3-(4-amino-7H-pyrrolo[2,3-d]pyrimidin-7-yl)-5-(((4-(6-chloro-5-(trifluoromethyl)-1H-benzo[d]imidazol-2-yl)butyl)(methyl)amino)methyl)-cyclopentane-1,2-diol] | > 7.00 |
| CC(C)N(CCCCc1nc2cc(C(F)(F)F)c(Cl)cc2[nH]1)C[C@H]1C[C@@H](n2ccc3c(N)ncnc32)[C@H](O)[C@@H]1O [Compound 14, (1R,2S,3R,5R)-3-(4-amino-7H-pyrrolo[2,3-d]pyrimidin-7-yl)-5-(((4-(6-chloro-5-(trifluoromethyl)-1H-benzo[d]imidazol-2-yl)butyl)(isopropyl)amino)methyl)-cyclopentane-1,2-diol] | > 7.00 |
| CS(=O)(=O)N(CCCCc1nc2cc(C(F)(F)F)c(Cl)cc2[nH]1)C[C@H]1C[C@@H](n2ccc3c(N)ncnc32)[C@H](O)[C@@H]1O [Compound 15, N-(((1R,2R,3S,4R)-4-(4-amino-7H-pyrrolo[2,3-d]pyrimidin-7-yl)-2,3-dihydroxycyclopentyl)methyl)-N-(4-(6-chloro-5-(trifluoromethyl)-1H-benzo[d]imidazol-2-yl)butyl)methanesulfonamide] | > 6.00 |
| CS(=O)(=O)N(CCCCc1nc2cc(Cl)c(Cl)cc2[nH]1)C[C@H]1C[C@@H](n2ccc3c(NC4CC4)ncnc32)[C@H](O)[C@@H]1O [Compound 16, N-(((1R,2R,3S,4R)-4-(4-(cyclopropylamino)-7H-pyrrolo-[2,3-d]pyrimidin-7-yl)-2,3-dihydroxycyclopentyl)methyl)-N-(4-(5,6-dichloro-1H-benzo[d]imidazol-2-yl)butyl)methanesulfonamide] | > 5.00 |
| CS(=O)(=O)N(CCCCc1nc2cc(C(F)(F)F)ccc2[nH]1)C[C@H]1C[C@@H](n2ccc3c(NC4CC4)ncnc32)[C@H](O)[C@@H]1O [Compound 17, N-(((1R,2R,3S,4R)-4-(4-(cyclopropylamino)-7H-pyrrolo-[2,3-d]pyrimidin-7-yl)-2,3-dihydroxycyclopentyl)methyl)-N-(4-(5-(trifluoromethyl)-1H-benzo[d]imidazol-2-yl)butyl)methanesulfonamide] | > 5.00 |
